Results taken from paper PMC6234229, “The role of loops B and C in determining the potentiation of GABAA receptors by midazolam” (Pharmacology Research & Perspectives, 2018).

Legend:
Experiment in all cases: Midazolam potentiation of EC10 GABA currents, whole-cell patch clamp, HEK293T
Assay type in all cases: cell-based
[1] = molecular target: T1, α1(T163P)β2γ2 GABAA receptor (Homo sapiens, UniProt P14867+P18507+P47870, T190P)
T1 construct: expressed in transfected cells; host or cells: HEK293T

[2] = molecular target: T2, α5(H105R)β2γ2 GABAA receptor (Homo sapiens, UniProt P18507+P31644+P47870, H136R)
T2 construct: expressed in transfected cells; host or cells: HEK293T

α5β2γ2 GABAA receptor = molecular target: T3, α5β2γ2 GABAA receptor (Homo sapiens, UniProt P18507+P31644+P47870)
T3 construct: expressed in transfected cells; host or cells: HEK293T
T3 sequence (P31644 32-462): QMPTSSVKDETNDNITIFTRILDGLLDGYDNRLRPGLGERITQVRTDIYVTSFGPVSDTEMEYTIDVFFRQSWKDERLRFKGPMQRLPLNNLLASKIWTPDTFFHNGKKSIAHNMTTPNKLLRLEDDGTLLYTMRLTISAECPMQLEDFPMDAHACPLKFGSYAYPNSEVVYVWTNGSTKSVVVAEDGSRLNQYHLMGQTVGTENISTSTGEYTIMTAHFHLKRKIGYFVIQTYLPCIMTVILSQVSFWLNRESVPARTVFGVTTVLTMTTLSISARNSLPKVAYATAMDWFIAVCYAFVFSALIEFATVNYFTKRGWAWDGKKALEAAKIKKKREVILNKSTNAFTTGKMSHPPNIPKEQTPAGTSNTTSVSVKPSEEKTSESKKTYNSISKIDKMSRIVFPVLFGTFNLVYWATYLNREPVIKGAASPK
T3 sequence (P47870 26-474 isoform P47870-1 limits assumed): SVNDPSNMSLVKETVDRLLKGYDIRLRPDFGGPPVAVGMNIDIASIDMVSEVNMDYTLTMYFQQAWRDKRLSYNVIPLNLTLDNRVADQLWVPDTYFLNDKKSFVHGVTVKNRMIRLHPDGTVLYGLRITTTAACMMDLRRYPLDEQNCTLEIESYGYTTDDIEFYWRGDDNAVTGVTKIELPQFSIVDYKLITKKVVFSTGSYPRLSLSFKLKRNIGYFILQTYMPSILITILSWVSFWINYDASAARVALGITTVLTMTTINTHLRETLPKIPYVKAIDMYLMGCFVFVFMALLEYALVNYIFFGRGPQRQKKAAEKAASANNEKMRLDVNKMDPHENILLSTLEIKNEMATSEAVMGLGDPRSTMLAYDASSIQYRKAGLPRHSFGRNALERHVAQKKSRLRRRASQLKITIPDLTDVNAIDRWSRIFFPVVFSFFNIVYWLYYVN
T3 sequence (P18507 40-467 isoform P18507-1 limits assumed): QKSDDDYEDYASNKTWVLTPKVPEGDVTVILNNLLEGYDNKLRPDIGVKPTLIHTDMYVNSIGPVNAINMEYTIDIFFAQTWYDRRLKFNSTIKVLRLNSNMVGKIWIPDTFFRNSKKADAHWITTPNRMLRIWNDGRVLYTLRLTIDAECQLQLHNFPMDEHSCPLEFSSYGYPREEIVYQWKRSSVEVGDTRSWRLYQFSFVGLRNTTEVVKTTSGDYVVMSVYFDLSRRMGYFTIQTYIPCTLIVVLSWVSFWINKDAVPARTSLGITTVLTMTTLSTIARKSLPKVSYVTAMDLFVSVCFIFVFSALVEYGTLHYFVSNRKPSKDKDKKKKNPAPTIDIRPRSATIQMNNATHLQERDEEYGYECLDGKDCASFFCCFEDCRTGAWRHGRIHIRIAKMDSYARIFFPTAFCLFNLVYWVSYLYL

T2 sequence (P31644 32-462 H136R): as the sequence (P31644 32-462) above, with H105R counted along it
T2 sequence (P47870 26-474 isoform P47870-1 limits assumed, stated change not applied): as the sequence (P47870 26-474 isoform P47870-1 limits assumed) above
T2 sequence (P18507 40-467 isoform P18507-1 limits assumed, stated change not applied): as the sequence (P18507 40-467 isoform P18507-1 limits assumed) above
T1 sequence (P14867 28-456 T190P): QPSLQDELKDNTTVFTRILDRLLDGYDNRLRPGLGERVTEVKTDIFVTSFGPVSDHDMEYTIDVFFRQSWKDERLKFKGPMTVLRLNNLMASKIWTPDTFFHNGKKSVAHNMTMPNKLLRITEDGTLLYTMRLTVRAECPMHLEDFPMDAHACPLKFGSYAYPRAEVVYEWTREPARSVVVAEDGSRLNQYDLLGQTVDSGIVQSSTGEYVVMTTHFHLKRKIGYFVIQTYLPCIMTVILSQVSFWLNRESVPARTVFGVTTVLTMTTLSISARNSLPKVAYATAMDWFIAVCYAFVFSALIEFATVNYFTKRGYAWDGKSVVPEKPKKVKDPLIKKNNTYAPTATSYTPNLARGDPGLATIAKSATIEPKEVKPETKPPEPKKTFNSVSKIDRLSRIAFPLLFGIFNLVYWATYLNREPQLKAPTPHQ
T1 sequence (P47870 25-512 limits assumed): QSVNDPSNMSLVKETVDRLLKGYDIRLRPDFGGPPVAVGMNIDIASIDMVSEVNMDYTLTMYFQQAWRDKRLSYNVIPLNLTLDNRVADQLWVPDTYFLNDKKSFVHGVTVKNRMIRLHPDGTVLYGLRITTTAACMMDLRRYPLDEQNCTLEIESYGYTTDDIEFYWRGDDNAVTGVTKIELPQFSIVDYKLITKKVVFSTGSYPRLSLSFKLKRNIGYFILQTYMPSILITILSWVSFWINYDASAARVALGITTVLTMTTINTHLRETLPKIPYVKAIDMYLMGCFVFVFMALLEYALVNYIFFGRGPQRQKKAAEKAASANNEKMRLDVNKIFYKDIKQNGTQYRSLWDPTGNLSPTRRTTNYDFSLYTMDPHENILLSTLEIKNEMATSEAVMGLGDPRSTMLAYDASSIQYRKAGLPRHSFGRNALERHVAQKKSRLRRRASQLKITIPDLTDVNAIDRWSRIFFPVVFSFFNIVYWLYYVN
T1 sequence (P18507 40-467 isoform P18507-1 limits assumed, stated change not applied): as the sequence (P18507 40-467 isoform P18507-1 limits assumed) above

SMILES: Cc1ncc2n1-c1ccc(Cl)cc1C(c1ccccc1F)=NC2 [midazolam]
- EC50 [1]: 61.1 ± 3.72 nM
- Midazolam potentiation (%) ([1]; 10 nM MDZ + EC10 GABA, α1(T163P)): 14.19 ± 4.15%
- Midazolam potentiation (%) ([1]; 50 nM MDZ + EC10 GABA, α1(T163P)): 49.96 ± 8.44%
- Midazolam potentiation (%) ([1]; 100 nM MDZ + EC10 GABA, α1(T163P)): 96.68 ± 15.00%
- Midazolam potentiation (%) ([1]; 500 nM MDZ + EC10 GABA, α1(T163P)): 124.27 ± 18.98%
- Midazolam potentiation (%) ([1]; 1000 nM MDZ + EC10 GABA, α1(T163P)): 123.00 ± 18.99%
- Max potentiation (%) ([1]; α1(T163P), Hill fit, midazolam 10-1000 nM + EC10 GABA): 127.7 ± 16.0 %
- Hill coefficient ([1]; α1(T163P), midazolam Hill fit): 2.113 ± 0.154
- responsiveness to midazolam potentiation [2]: abolished the ability of receptors to respond to midazolam potentiation
- Midazolam potentiation (%) ([2]; 10 nM MDZ + EC10 GABA): 8.59 ± 4.39%
- Midazolam potentiation (%) ([2]; 50 nM MDZ + EC10 GABA): 7.73 ± 4.67%
- Midazolam potentiation (%) ([2]; 100 nM MDZ + EC10 GABA): 8.00 ± 4.85%
- Midazolam potentiation (%) ([2]; 500 nM MDZ + EC10 GABA): 5.65 ± 3.99%
- Midazolam potentiation (%) ([2]; 1000 nM MDZ + EC10 GABA): 8.17 ± 4.66%
- EC50 (α5β2γ2 GABAA receptor): 52.8 ± 3.48 nM
- Midazolam potentiation (%) (α5β2γ2 GABAA receptor; 10 nM MDZ + EC10 GABA, α5β2γ2): 20.47 ± 10.62%
- Midazolam potentiation (%) (α5β2γ2 GABAA receptor; 50 nM MDZ + EC10 GABA, α5β2γ2): 63.82 ± 19.54%
- Midazolam potentiation (%) (α5β2γ2 GABAA receptor; 100 nM MDZ + EC10 GABA, α5β2γ2): 113.29 ± 28.44%
- Midazolam potentiation (%) (α5β2γ2 GABAA receptor; 500 nM MDZ + EC10 GABA, α5β2γ2): 130.90 ± 29.52%
- Midazolam potentiation (%) (α5β2γ2 GABAA receptor; 1000 nM MDZ + EC10 GABA, α5β2γ2): 123.12 ± 26.08%
- Max potentiation (%) (α5β2γ2 GABAA receptor; α5β2γ2, Hill fit, midazolam 10-1000 nM + EC10 GABA): 107.9 ± 20.3%
- Hill coefficient (α5β2γ2 GABAA receptor; α5β2γ2, midazolam Hill fit): 2.632 ± 0.329
